The supplement of paper PMC6045584
± gives the standard deviation of the averaged measurements.

Columns and labels:
TEMOZOLOMIDE = compound: Cn1nnc2c(C(N)=O)ncn2c1=O [TEMOZOLOMIDE]; assay: surviving fraction relative to DMSO-only wells; higher = less growth inhibition; conditions: exposure time: 5 days
In short: (§1)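 Surviving fraction is CellTiter-Glo luminescence divided by the median of wells given DMSO only. For this, log-phase tumour cell lines went into 384-well plates at 250–500 cells per well and, 24 hours later, into five days of continuous inhibitor exposure at 0.5, 1, 5, 10, 50, 100, 500 and 1000 nM. Lines were screened three times and retained only if replicate Pearson r >0.7 and median Z' >0.3.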

MLN-4924 = compound: NS(=O)(=O)OC[C@@H]1C[C@@H](n2ccc3c(N[C@H]4CCc5ccccc54)ncnc32)C[C@@H]1O [MLN-4924]; assay: as above; conditions: exposure time: 5 days
In short: as §1

Test System	surviving fraction (TEMOZOLOMIDE; 0.5 nM)	surviving fraction (TEMOZOLOMIDE; 1 nM)	surviving fraction (TEMOZOLOMIDE; 5 nM)	surviving fraction (TEMOZOLOMIDE; 10 nM)	surviving fraction (TEMOZOLOMIDE; 50 nM)	surviving fraction (TEMOZOLOMIDE; 100 nM)	surviving fraction (TEMOZOLOMIDE; 500 nM)	surviving fraction (TEMOZOLOMIDE; 1000 nM)	surviving fraction (MLN-4924; 0.5 nM)	surviving fraction (MLN-4924; 1 nM)	surviving fraction (MLN-4924; 5 nM)	surviving fraction (MLN-4924; 10 nM)	surviving fraction (MLN-4924; 50 nM)	surviving fraction (MLN-4924; 100 nM)	surviving fraction (MLN-4924; 500 nM)	surviving fraction (MLN-4924; 1000 nM)
HT1080 SOFT TISSUE	1.04 ± 0.039	1.03 ± 0.014	1.03 ± 0.026	1.03 ± 0.022	1.03 ± 0.026	1.04 ± 0.014	1.04 ± 0.017	1.03 ± 0.023	1.074 ± 0.0072	1.05 ± 0.047	1.112 ± 0.0055	1.14 ± 0.045	0.9977 ± 0.0078	0.705 ± 0.042	0.223 ± 0.022	0.11 ± 0.0061
ZR751 BREAST	0.95 ± 0.12	0.953 ± 0.032	0.981 ± 0.034	0.964 ± 0.09	0.987 ± 0.15	1.04 ± 0.11	0.918 ± 0.11	1.05 ± 0.06	1.23 ± 0.056	1.08 ± 0.17	1.13 ± 0.13	1.24 ± 0.036	1.06 ± 0.13	1.03 ± 0.092	0.784 ± 0.11	0.669 ± 0.063
HCC202 BREAST	1.08 ± 0.35	1 ± 0.13	1.07 ± 0.32	0.9 ± 0.071	1.01 ± 0.17	1.29 ± 0.14	0.975 ± 0.035	1.254 ± 0.011	1.14 ± 0.32	1.07 ± 0.26	1.24 ± 0.12	1.131 ± 0.0092	0.731 ± 0.22	0.557 ± 0.22	0.299 ± 0.066	0.265 ± 0.015
CAL51 BREAST	0.973 ± 0.038	1.05 ± 0.037	0.993 ± 0.02	1.07 ± 0.048	1.05 ± 0.057	1.06 ± 0.048	1.04 ± 0.032	1.02 ± 0.037	1.01 ± 0.035	1.01 ± 0.045	1.06 ± 0.025	1.01 ± 0.051	0.922 ± 0.067	0.702 ± 0.085	0.2 ± 0.022	0.128 ± 0.012
SG28 HEADNECK	1.03 ± 0.044	1.18 ± 0.034	1.04 ± 0.013	1.1 ± 0.021	1.1 ± 0.087	1.05 ± 0.013	1.09 ± 0.14	1.09 ± 0.048	1.16 ± 0.16	1.16 ± 0.03	1.153 ± 0.0099	1.1 ± 0.032	0.726 ± 0.076	0.614 ± 0.1	0.296 ± 0.024	0.24 ± 0.0099
SG31 HEADNECK	0.991 ± 0.11	1.07 ± 0.18	1.01 ± 0.15	1.04 ± 0.013	0.922 ± 0.062	1.17 ± 0.52	1.17 ± 0.24	1.12 ± 0.12	1.21 ± 0.15	1.37 ± 0.22	1.06 ± 0.24	1.12 ± 0.14	0.671 ± 0.12	0.553 ± 0.062	0.247 ± 0.0062	0.198 ± 0.034
SAOS2 BONE	1.1 ± 0.026	1.12 ± 0.099	1.25 ± 0.047	1.2 ± 0.05	1.2 ± 0.13	1.23 ± 0.081	1.16 ± 0.063	1.18 ± 0.14	1.14 ± 0.096	1.1 ± 0.082	1.13 ± 0.057	1.1 ± 0.069	0.313 ± 0.03	0.095 ± 0.0095	0.038 ± 0.0017	0.0377 ± 0.0015
SCC36 HEADNECK	1.04 ± 0.065	1.08 ± 0.088	1.19 ± 0.11	1.14 ± 0.069	1.07 ± 0.056	1.08 ± 0.14	1.11 ± 0.1	1.05 ± 0.078	1.06 ± 0.18	0.955 ± 0.11	1.13 ± 0.061	1.14 ± 0.09	0.544 ± 0.12	0.259 ± 0.029	0.0483 ± 0.0085	0.047 ± 0.002
DU4475 BREAST	0.877 ± 0.091	0.998 ± 0.053	0.973 ± 0.19	0.878 ± 0.093	0.851 ± 0.08	1.01 ± 0.2	0.972 ± 0.24	0.989 ± 0.067	0.976 ± 0.098	1.02 ± 0.028	0.894 ± 0.049	0.683 ± 0.11	0.033 ± 0.001	0.0267 ± 0.0042	0.0323 ± 0.0011	0.0333 ± 0.0011
HOS BONE	0.994 ± 0.018	1.038 ± 0.0071	1.028 ± 0.0056	1.05 ± 0.042	1.04 ± 0.012	1.04 ± 0.012	1.04 ± 0.016	1.058 ± 0.0076	1.04 ± 0.026	1.02 ± 0.014	1.01 ± 0.042	0.949 ± 0.027	0.574 ± 0.033	0.337 ± 0.013	0.0287 ± 0.0011	0.0287 ± 0.0021
